Results on two molecules are retold here after patent US4066650A, “Keto-aldehyde-amine addition products and method of making same” (priority 1975, dated 1978).

The structures appear in SMILES notation.

One series relates to Sarcoma-180. In words: Anti-tumor action on subcutaneous Sarcoma-180 in mice. Also noted: ED: unit not given here. In kind it is in vivo, Swiss albino mice (Charles River CD-1 strain). To be noted: for ED: tumorous mice. As to the method:
On the eleventh day (tumer age 14 days) the test and control mice were sacrificed, the tumor or tumorous area was cut out, weighed and stored in formaldehyde for histological examination. At the same time the liver, kidneys, spleen, heart, and a piece of the small intestine were collected and stored in formaldehyde for histopathological evaluation of the effect of the drugs on these tissues and organs.
The anti-neoplastic action of the drugs was assayed by comparison of the tumor weight present in treated and control animals and expressed as the percent of controls average weight (T/C%). The presence of malignancy in the tumors or tumor-areas of the treated animals was verified by histological examination.
The reabsorption of tissue, formed between the inocculation of the cancer cells and the onset of the treatment is relatively slow. Treated animals even under strong cancerostatic action of the drugs show a small quantity (100-200 mg) of tissue in the area where the tumor cells where deposited. It is therefore difficult to tell the nature of these residual tissues by macroscopic examination. Most of these residual "lumps" are made up of connective tissues and necrotic, scar tissues. If it were regarded as neoplasia without histological examination the T/C% calculation would give an erratic result in the evaluation of the anti-cancer action of the compound. Histological examination of these "lumps" therefore is exceedingly important in order to arrive at a valid evaluation of the effectiveness of the drugs especially in short-term experiments (10 days) as carried out in the present assays.

A short description of series [1]: in vivo. As to conditions: mouse, in vivo, ip. How it is done: (§1) The biological effects of methylglyoxal maleimide ("A") and methylglyoxal glutaconic imide ("B") were determined by tests on normal (non-tumorous) and subcutaneous Sarcoma-180 tumor-bearing mice. […] The compounds were administered by intraperitoneal route and the values were calculated by standard methods (Goldin A., in Meth.Can.Res. 4, p. 193, 1968).
(§2) A thirty-day survival test was carried out with normal mice to determine any possible delayed toxicity.
(§3) The test solutions were prepared by dissolving either 38.72 mg of methylglyoxal maleimide ("A") or 5278 mg of methylglyoxal glutaconic imide ("B") in 100 ml of physiological saline. The pH of the solution was adjusted to 6.0, sterilized on Millipore filtration and stored in sterile vials at about 10° C. One […] of such solutions contained 0.387 mg of compound "A" or 52.78 mg of compound "B", respectively and when injected into mice of an average weight of 26 grams the dose was equivalent to 14.884 mg/kg of the compound "A" and 2030 mg/kg of the compound "B".
(§4) Normal, non-tumor-bearing mice of the same strain, sex and weight were also randomized and placed in separate test groups.
(§5) The compositions were injected at different dose levels, each dose being double the next-lower dose, with three test groups (30 mice) for each dose level. The injection was effected intraperitoneally into normal and tumor-bearing mice, starting on the fourth day after the inocculation with cancer, once daily for ten consecutive days. […] A proper number of normal and tumorous mice was treated with saline solution in the same manner, frequency and volume as a control experiment. The body weight change and mortality (acute toxicity) were recorded daily.
(§6) A number of normal animals treated with the drugs in the same manner as the tumorous ones were also sacrificed on the eleventh day, and their organs were collected for histological examination.

For series [2], the system named is normal (non-tumorous) mice. In words: Acute toxicity (mortality), body weight change and 30-day survival in normal mice. As to conditions: for Δ body wt: mouse, in vivo, ip. As to the method:
as §1, §2, §3, §4, §5, §6

Series [3] can be described thus: in vivo. To be noted: mouse, in vivo, ip. As to the method: as §1, §3
(§7) Random-bred Swiss albino mice (Charles River CD-1 strain, average weight 26±3 g, females) were inocculated with 25 million Sarcoma-180 cells (in about 0.25 ml of ascitic fluid, cell age 7 days) on the right scapular region. The animals were randomized on the 4th day after the inocculation with the cancer cells, placed in separate test groups of 10 mice per group (5 mice/cage) and weighed.
(§8) The compositions were injected at different dose levels, each dose being double the next-lower dose, with three test groups (30 mice) for each dose level. The injection was effected intraperitoneally into normal and tumor-bearing mice, starting on the fourth day after the inocculation with cancer, once daily for ten consecutive days. The volume of the injection at each dose level was brought up to 1.0 ml with saline. A proper number of normal and tumorous mice was treated with saline solution in the same manner, frequency and volume as a control experiment. The body weight change and mortality (acute toxicity) were recorded daily.
This is another data set of the same source.

Series [4] deals with Sarcoma-180 tumor-bearing mice. In words: in vivo. To be noted: mouse, in vivo, ip. As to the method:
as §1, §3, §7, §8

The nature of another series: Water solubility. Type of series: physicochemical.

For `CC(=O)C(O)N1C(=O)C=CCC1=O` (stereo not shown) [Methylglyoxal-glutaconic imide, N'-(2-keto-propane-1-ol)-2,6-dioxopyridine], in the series with Sarcoma-180 (Mus musculus, Sarcoma-180, ip, 240 h, read-out: ED90 (effective dose at 90% effectiveness)), the ED90 is 210 mg/kg. Besides, the “IT (therapeutic index LD10/ED90)” value in the series on Sarcoma-180 (mice, i.p. daily for 10 days) is 6.23. Further, the ED with Sarcoma-180 (63.5 mg/kg i.p. daily for 10 days) was over 5; in the series on Sarcoma-180 (127 mg/kg i.p. daily for 10 days), 55; with Sarcoma-180 (254 mg/kg i.p. daily for 10 days), 100; in the series on Sarcoma-180 (508 mg/kg i.p. daily for 10 days), 100; in the series with Sarcoma-180 (1016 mg/kg i.p. daily for 10 days) it was 100. Moreover, the mortality at 240 h in the series “in vivo [1]” (63.5 mg/kg) came out at 0%; in the series “in vivo [1]” (127 mg/kg), 0%; in “in vivo [1]” (254 mg/kg), 0%; in the series “in vivo [1]” (508 mg/kg), 0%; in “in vivo [1]” (1016 mg/kg), 0%; in “in vivo [1]” (2032 mg/kg) it was 100%. Also, the mortality at 240 h worked out at 0% in the series “in vivo [3]” (63.5 mg/kg); 0% in “in vivo [3]” (127 mg/kg); 0% in “in vivo [3]” (254 mg/kg); 0% in “in vivo [3]” (508 mg/kg); 0% in the series “in vivo [3]” (1016 mg/kg); 100% in “in vivo [3]” (2032 mg/kg). Further, the “LD10 (maximum tolerated dose at 10% lethality)” value in series [2] (mice, i.p. daily for 10 days) was 1310 mg;kg. The “effect of reduction in the total volume of injection on mortality” value in series [2] (mice, i.p., volume below 1.0 ml/animal/day) is “increase in mortality”. In addition, the Δ body wt result in series [2] (63.5 mg/kg) was “+0.55”; in series [2] (127 mg/kg) it was “+0.3”; in series [2] (254 mg/kg), “+0.15”; in series [2] (508 mg/kg) it was -0.1; in series [2] (1016 mg/kg) it was -0.1; in series [2] (1524 mg/kg), -0.4. The Δ body wt result is “+0.6” in series [4] (63.5 mg/kg); “+0.35” in series [4] (127 mg/kg); “+0.4” in series [4] (254 mg/kg); “+0.1” in series [4] (508 mg/kg); -0.3 in series [4] (1016 mg/kg). The “30 day mortality rate of all treated nontumorous animals (compared with mortality in 10 days)” value in series [2] (normal mice, i.p. daily for 10 days, 30 day observation) is “identical”.

`CC(=O)C(O)N1C(=O)CCC1=O` (stereo not shown) [Methylglyoxal-succinimide, N-(2-keto-propane-1ol)-2,5diketo pyrrolidine]: in “Water solubility”, the water solubility result was “high”.

The mortality is the share of the test organisms that died.
